Results published in patent publication US20100075965A1, “PI3 KINASE INHIBITORS AND METHODS OF THEIR USE” (Novartis AG, priority 2006, published 2010).
Where two headings read alike, the source gives them in different places.

Key:
[1] = system: pSer473-Akt in A2780 cells; test: pSer473 Akt assay to monitor PI3K pathway in A2780 cells (MSD); type: cell-based; settings: Homo sapiens
Description: In this method, an assay for measuring the PI3K-mediated pSer^473-Akt status after treatment with representative inhibitor compounds of the preferred embodiments is described.
A2780 cells were cultured in DMEM supplemented with 10% FBS, L-glutamine, sodium pyruvate, and antibiotics. Cells were plated in the same medium at a density of 15,000 cells per well into 96 well tissue culture plates, with outside wells vacant, and allowed to adhere overnight.
Test compounds supplied in DMSO were diluted further into DMSO at 500 times the desired final concentrations before dilution into culture media to 2 times the final concentrations. Equal volumes of 2× compounds in media were added to the cells in 96 well plates and incubated at 37° C. for one hour. The media and compounds were then removed, the plates chilled and cells lysed in a lysis buffer (150 mM NaCl, 20 mM Tris pH 7.5, 1 mM EDTA, 1 mM EGTA, 1% Triton X-100) supplemented with phosphatase and protease inhibitors. After thorough mixing, lysates were transferred to both pSer473Akt and total Akt assay plates from Meso Scale Discovery (MSD), and incubated overnight with shaking at 4° C. The plates were washed with 1×MSD wash buffer and the captured analytes detected with secondary antibodies. After incubation with the secondary antibody at room temperature for 1-2 hours, the plates were washed again and 1.5× concentration of Read Buffer T (MSD) was added to the wells.
The assays were read on a SECTOR Imager 6000 instrument (Meso Scale Discovery). Ratios of the signal from pSer473Akt and total Akt assays were used to correct for any variability and the percent inhibition of pSer473Akt from the total signal seen in cells treated with compound versus DMSO alone was calculated and used to determine EC50 values for each compound as shown in Tables 1 and 2 in the column labeled “A2780 pAKT473 EC50”.

A2780 cells = test: Viability assay in A2780 (Cell Titer Glo); type: cell-based, human; settings: Homo sapiens, read-out: A2780 Cell prolif. EC50
Outline: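 A2780 cells (1,000/well, DMEM + 10% FBS) were exposed to 3-fold serial dilutions of compound for 72 hrs at 37° C, 5% CO2. Viable cells were read by Cell Titer Glo luminescence, in duplicate, and EC50 values were derived from the curves.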

PI3 K Alpha = PI3 K Alpha (Homo sapiens, UniProt P42336); test: PI3 kinase phosphorylation assays (homogenous solution phase, one step solid phase, ATP depletion/KinaseGlo); type: biochemical; settings: read-out: PI3K Alpha IC50
[2] = A2780 cells, read-out: A2780 pAKT 473 EC50
[3] = 1 h, A2780 cells, one hour incubation, read-out: A2780 pAKT473 EC50

PI3 K Alpha, sequence (P42336 whole entry): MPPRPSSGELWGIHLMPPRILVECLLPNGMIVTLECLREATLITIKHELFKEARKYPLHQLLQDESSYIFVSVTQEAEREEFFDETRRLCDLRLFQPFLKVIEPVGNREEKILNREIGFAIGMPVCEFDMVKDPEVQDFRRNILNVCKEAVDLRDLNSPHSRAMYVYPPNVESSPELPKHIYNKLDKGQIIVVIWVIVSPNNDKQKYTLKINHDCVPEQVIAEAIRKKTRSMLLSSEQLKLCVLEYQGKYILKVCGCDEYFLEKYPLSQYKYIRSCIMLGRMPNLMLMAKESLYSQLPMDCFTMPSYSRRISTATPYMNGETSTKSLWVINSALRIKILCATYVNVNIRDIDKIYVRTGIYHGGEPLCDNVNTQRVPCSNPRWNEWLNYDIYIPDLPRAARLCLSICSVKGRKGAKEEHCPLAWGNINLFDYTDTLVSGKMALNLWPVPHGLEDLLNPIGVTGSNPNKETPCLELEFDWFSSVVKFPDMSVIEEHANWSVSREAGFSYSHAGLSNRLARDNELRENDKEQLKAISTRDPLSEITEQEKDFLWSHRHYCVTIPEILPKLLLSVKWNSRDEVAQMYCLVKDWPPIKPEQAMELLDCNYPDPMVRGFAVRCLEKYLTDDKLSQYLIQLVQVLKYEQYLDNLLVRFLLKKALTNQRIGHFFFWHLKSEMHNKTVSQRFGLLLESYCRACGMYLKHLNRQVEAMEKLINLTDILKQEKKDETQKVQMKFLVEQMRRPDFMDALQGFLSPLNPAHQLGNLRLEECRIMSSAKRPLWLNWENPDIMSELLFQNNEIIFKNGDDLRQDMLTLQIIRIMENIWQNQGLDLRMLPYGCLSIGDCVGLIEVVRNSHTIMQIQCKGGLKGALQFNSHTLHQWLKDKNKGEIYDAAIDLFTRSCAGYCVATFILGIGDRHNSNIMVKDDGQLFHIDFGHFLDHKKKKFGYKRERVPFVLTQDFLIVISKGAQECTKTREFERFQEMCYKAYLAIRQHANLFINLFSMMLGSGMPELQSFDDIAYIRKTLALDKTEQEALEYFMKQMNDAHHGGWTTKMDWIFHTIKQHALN
PI3 K Alpha, sequence (P27986 whole entry partner): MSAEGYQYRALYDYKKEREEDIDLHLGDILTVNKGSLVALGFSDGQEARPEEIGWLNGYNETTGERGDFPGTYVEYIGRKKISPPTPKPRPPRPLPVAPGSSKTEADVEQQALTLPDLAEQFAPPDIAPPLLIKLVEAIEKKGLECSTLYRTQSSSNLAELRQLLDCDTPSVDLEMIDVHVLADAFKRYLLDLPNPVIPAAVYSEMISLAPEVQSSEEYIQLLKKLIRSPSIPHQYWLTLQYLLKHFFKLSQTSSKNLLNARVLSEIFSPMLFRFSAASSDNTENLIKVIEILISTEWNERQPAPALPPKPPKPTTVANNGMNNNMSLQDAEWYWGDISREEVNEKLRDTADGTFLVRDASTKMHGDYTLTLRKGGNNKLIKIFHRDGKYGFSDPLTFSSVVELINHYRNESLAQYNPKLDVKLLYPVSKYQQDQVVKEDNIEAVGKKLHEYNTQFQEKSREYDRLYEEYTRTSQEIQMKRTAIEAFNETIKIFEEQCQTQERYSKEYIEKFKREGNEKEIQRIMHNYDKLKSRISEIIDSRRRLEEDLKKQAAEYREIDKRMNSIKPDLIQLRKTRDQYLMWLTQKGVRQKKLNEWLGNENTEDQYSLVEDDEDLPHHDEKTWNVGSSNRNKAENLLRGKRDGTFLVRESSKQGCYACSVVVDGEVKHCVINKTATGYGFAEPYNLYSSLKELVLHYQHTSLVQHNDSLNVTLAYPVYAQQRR

| EC50 [1, 2] [nM] | EC50 (A2780 cells; A2780 cells) [nM] | Compound | further results |
| --- | --- | --- | --- |
| < 10000 | < 25000 | Nc1ccc(-c2ccc3nc(NC(=O)C(F)(F)F)cn3c2)cn1 [Example 1, N-[6-(6-Amino-pyridin-3-yl)-imidazo[1,2-a]pyridin-2-yl]-2,2,2-trifluoro-acetamide] |  |
| < 25000 | < 25000 | Nc1ncc(-c2ccc3nc(NC(=O)C(F)(F)F)cn3c2)cn1 [Example 2, N-[6-(2-Amino-pyrimidin-5-yl)-imidazo[1,2-a]pyridin-2-yl]-2,2,2-trifluoro-acetamide] | IC50 (PI3 K Alpha): < 1000 nM |
|  |  | CC(=O)Nc1nc2ccc(-c3cnc(N)nc3)cc2s1 [Example 2-1, N-[6-(2-Amino-pyrimidin-5-yl)-benzothiazol-2-yl]-acetamide] | EC50 [1, 3]: < 1000 nM; EC50 (A2780 cells; A2780 cells, 72 hrs): < 10000 nM |
|  |  | CC(=O)Nc1nc2ccc(-c3ccc(N)nc3)cc2s1 [Example 2-2, N-[6-(6-Amino-pyridin-3-yl)-benzothiazol-2-yl]-acetamide] | EC50 [1, 3]: < 1000 nM; EC50 (A2780 cells; A2780 cells, 72 hrs): < 10000 nM |
|  |  | CC(=O)Nc1nc2ccc(-c3cnc(N)c(C)c3)cc2s1 [Example 2-4, N-[6-(6-Amino-5-methyl-pyridin-3-yl)-benzothiazol-2-yl]-acetamide] | EC50 [1, 3]: < 1000 nM; EC50 (A2780 cells; A2780 cells, 72 hrs): < 10000 nM |
|  |  | Nc1ccc(-c2ccc3nc(NC(=O)CCCN4CCCCC4)sc3c2)cn1 [Example 2-5, N-[6-(6-Amino-pyridin-3-yl)-benzothiazol-2-yl]-4-piperidin-1-yl-butyramide] | EC50 [1, 3]: < 1000 nM; EC50 (A2780 cells; A2780 cells, 72 hrs): < 10000 nM |
|  |  | CC(=O)Nc1nc2ccc(-c3cnc(N)c(C(F)(F)F)c3)cc2s1 [Example 2-8, N-[6-(6-Amino-5-trifluoromethyl-pyridin-3-yl)-benzothiazol-2-yl]-acetamide] | EC50 [1, 3]: < 1000 nM; EC50 (A2780 cells; A2780 cells, 72 hrs): < 1000 nM |
|  |  | COc1cc(-c2ccc3nc(NC(C)=O)sc3c2)cnc1N [Example 2-9, N-[6-(6-Amino-5-methoxy-pyridin-3-yl)-benzothiazol-2-yl]-acetamide] | EC50 ([1]; A2780, 1 h, read-out: A2780 pAKT473 EC50): < 1000 nM; EC50 (A2780 cells; A2780, 72 h): < 1000 nM |
|  |  | Nc1ncc(-c2ccc3nc(NC(=O)CCCN4CCOCC4)sc3c2)cc1C(F)(F)F [Example 2-12, N-[6-(6-Amino-5-trifluoromethyl-pyridin-3-yl)-benzothiazol-2-yl]-4-morpholin-4-yl-butyramide] | EC50 [1, 3]: < 1000 nM; EC50 (A2780 cells; A2780 cells, 72 hrs): < 10000 nM |
|  |  | Nc1ncc(-c2ccc3nc(NC(=O)CCCN4CCCCC4)sc3c2)cc1C(F)(F)F [Example 2-21, N-[6-(6-Amino-5-trifluoromethyl-pyridin-3-yl)-benzothiazol-2-yl]-4-piperidin-1-yl-butyramide] | EC50 [1, 3]: < 1000 nM; EC50 (A2780 cells; A2780 cells, 72 hrs): < 10000 nM |
| < 1000 |  | CC(=O)Nc1cn2cc(-c3cnc(N)c(C(F)(F)F)c3)ccc2n1 [Example 5, N-[6-(6-Amino-5-trifluoromethyl-pyridin-3-yl)-imidazo[1,2-a]pyridin-2-yl]-acetamide] |  |
| < 1000 |  | COc1cc(-c2ccc3nc(NC(C)=O)cn3c2)cnc1N [Example 6, N-[6-(6-Amino-5-methoxy-pyridin-3-yl)-imidazo[1,2-a]pyridin-2-yl]-acetamide] |  |
| < 1000 |  | CC(=O)Nc1cn2nc(-c3cnc(N)c(C(F)(F)F)c3)ccc2n1 [Example 16, N-[6-(6-Amino-5-trifluoromethyl-pyridin-3-yl)-imidazo[1,2-b]pyridazin-2-yl]-acetamide] |  |
| < 1000 |  | COc1cc(-c2ccc3nc(NC(C)=O)cn3n2)cnc1N [Example 21, N-[6-(6-Amino-5-methoxy-pyridin-3-yl)-imidazo[1,2-b]pyridazin-2-yl]-acetamide] |  |
| < 1000 |  | CC(=O)Nc1cn2cc(-c3cnc(N)c(OC(C)C)n3)ccc2n1 [Example 54, N-(6-(5-amino-6-isopropoxy-pyrazin-2-yl)imidazo[1,2-a]pyridin-2-yl)acetamide] |  |
| < 1000 |  | CC(=O)Nc1cn2cc(-c3cnc(N)c(O[C@@H](C)C(F)(F)F)n3)ccc2n1 [Example 55, (S)-N-(6-(5-amino-6-(1,1,1-trifluoropropan-2-yloxy)pyrazin-2-yl)imidazo[1,2-a]pyridin-2-yl)acetamide] |  |

| EC50 [1, 2] [nM] | EC50 (A2780 cells; A2780 cells) [nM] | Compound | further results |
| --- | --- | --- | --- |
| < 1000 |  | CC(=O)Nc1cn2cc(-c3cnc(N)c(OCC(F)(F)F)n3)ccc2n1 [Example 56, N-(6-(5-amino-6-(2,2,2-trifluoroethoxy)pyrazin-2-yl)imidazo[1,2-a]pyridin-2-yl)acetamide] |  |
| < 1000 |  | COCCOc1nc(-c2ccc3nc(NC(C)=O)cn3c2)cnc1N [Example 61, N-(6-(5-amino-6-(2-methoxyethoxy)pyrazin-2-yl)imidazo[1,2-a]pyridin-2-yl)acetamide] |  |
| < 1000 |  | CCOc1nc(-c2ccc3nc(NC(C)=O)cn3c2)cnc1N [Example 62, N-(6-(5-amino-6-ethoxypyrazin-2-yl)imidazo[1,2-a]pyridin-2-yl)acetamide] |  |
| < 1000 |  | CC(=O)Nc1cn2cc(-c3cnc(N)c(O[C@H](C)C(F)(F)F)n3)ccc2n1 [Example 70, (R)-N-(6-(5-amino-6-(1,1,1-trifluoropropan-2-yloxy)pyrazin-2-a]pyridin-2-yl)acetamide] |  |
| < 1000 |  | COc1nc(-c2ccc3nc(NC(C)=O)cn3c2)cnc1N [Example 101, N-(6-(5-amino-6-methoxypyrazin-2-yl)imidazo[1,2-a]pyridin-2-yl)acetamide] |  |
| < 1000 |  | COCCOc1cc(-c2ccc3nc(NC(C)=O)cn3n2)cnc1N [Example 106, N-(6-(6-amino-5-(2-methoxyethoxy)pyridin-3-yl)imidazo[1,2-b]pyridazin-2-yl)acetamide] |  |
| < 1000 |  | CCOc1cc(-c2ccc3nc(NC(C)=O)cn3c2)cnc1N [Example 111, N-(6-(6-amino-5-ethoxypyridin-3-yl)imidazo[1,2-a]pyridin-2-yl)acetamide] |  |
| < 1000 |  | CCOc1cc(-c2ccc3nc(NC(C)=O)cn3n2)cnc1N [Example 119, N-(6-(6-amino-5-ethoxypyridin-3-yl)imidazo[1,2-b]pyridazin-2-yl)acetamide] |  |
|  | < 10000 | CC(C)(C)OC(=O)N1CCC(OCC(=O)Nc2cn3cc(-c4cnc(N)c(C(F)(F)F)c4)ccc3n2)CC1 [Example 251, tert-butyl 4-(2-(6-(6-amino-5-(trifluoromethyl)pyridin-3-yl)imidazo[1,2-a]pyridin-2-ylamino)-2-oxoethoxy) piperidine-1-carboxylate] | IC50 (PI3 K Alpha): < 1000 nM |
|  | < 10000 | C/C=C/C(=O)Nc1cn2cc(-c3cnc(N)c(C(F)(F)F)c3)ccc2n1 [Example 252, (E)-N-(6-(6-amino-5-(trifluoromethyl)pyridin-3-yl)imidazo[1,2-a]pyridin-2-yl)but-2-enamide] | IC50 (PI3 K Alpha): < 1000 nM |
|  | < 10000 | C[C@@H](NC(=O)OC(C)(C)C)C(=O)Nc1cn2nc(-c3cnc(N)c(C(F)(F)F)c3)ccc2n1 [Example 253, (R)-tert-butyl 1-(6-(6-amino-5-(trifluoromethyl)pyridin-3-yl)imidazo[1,2-b]pyridazin-2-ylamino)-1-oxopropan-2-ylcarbamate] | IC50 (PI3 K Alpha): < 1000 nM |
|  | < 10000 | CC(=O)Nc1nc2ccc(-c3cnc(N)c(C(F)(F)F)c3)cn2c1CCc1ccccc1 [Example 254, N-(6-(6-amino-5-(trifluoromethyl)pyridin-3-yl)-3-phenethyl-imidazo[1,2-a]pyridin-2-yl)acetamide] | IC50 (PI3 K Alpha): < 1000 nM |
|  | < 10000 | CCOC(=O)CC(=O)Nc1cn2cc(-c3cnc(N)c(C(F)(F)F)c3)ccc2n1 [Example 255, ethyl 3-(6-(6-amino-5-(trifluoromethyl)pyridin-3-yl)imidazo[1,2-a]pyridin-2-ylamino)-3-oxopropanoate] | IC50 (PI3 K Alpha): < 1000 nM |
|  | < 10000 | Nc1ncc(-c2ccc3nc(NC(=O)C4CNC4)cn3c2)cc1C(F)(F)F [Example 256, N-(6-(6-amino-5-(trifluoromethyl)pyridin-3-yl)imidazo[1,2-a]pyridin-2-yl)azetidine-3-carboxamide] | IC50 (PI3 K Alpha): < 1000 nM |
|  | < 10000 | COC(=O)C1CCN(C(=O)Nc2cn3cc(-c4cnc(N)c(C(F)(F)F)c4)ccc3n2)C1 (stereo not drawn) [Example 257, methyl 1-(6-(6-amino-5-(trifluoromethyl)pyridin-3-yl)imidazo[1,2-a]pyridin-2-ylcarbamoyl) pyrrolidine-3-carboxylate] | IC50 (PI3 K Alpha): < 1000 nM |
| < 1000 | < 10000 | Nc1ncc(-c2ccc3nc(NC(=O)[C@@H]4CCCCN4)cn3c2)cc1C(F)(F)F [Example 283, (S)-N-(6-(6-amino-5-(trifluoromethyl)pyridin-3-yl)imidazo[1,2-a]pyridin-2-yl)piperidine-2-carboxamide] |  |
